Results: PMC9954146, “Anti-Leukaemic Activity of Rilpivirine Is Mediated by Aurora A Kinase Inhibition” (Cancers, 2023)

What was measured:
Test in all cases: Kinase panel
Format in all cases: biochemical
Details in all cases: read-out: % Residual Activity
EGFR(h) = molecular target: T1, EGFR(h) (Homo sapiens, UniProt P00533)
T1 construct: purchased Eurofins (KinaseProfiler)
How it was run: (§1)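 Cheng–Prusoff conversion of IC50 to Ki; IC50s from radioisotope-based assays at Km(ATP). Kinome-wide rilpivirine profiling.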

Met(D1246H)(h) = molecular target: T2, Met(D1246H)(h) (Homo sapiens, UniProt P08581, D1228H)
T2 construct: purchased Eurofins (KinaseProfiler)
How it was run: as §1

Plk1(h) = molecular target: T3, Plk1(h) (Homo sapiens, UniProt P53350)
T3 construct: purchased Eurofins (KinaseProfiler)
How it was run: as §1

c-RAF(h) = molecular target: T4, c-RAF(h) (Homo sapiens, UniProt P04049)
T4 construct: purchased Eurofins (KinaseProfiler)
How it was run: as §1

TAF1L(h) = molecular target: T5, TAF1L(h) (Homo sapiens, UniProt Q8IZX4)
T5 construct: purchased Eurofins (KinaseProfiler)
How it was run: as §1

DAPK2(h) = molecular target: T6, DAPK2(h) (Homo sapiens, UniProt Q9UIK4)
T6 construct: purchased Eurofins (KinaseProfiler)
How it was run: as §1

Tie2 (h) = molecular target: T7, Tie2 (h) (Homo sapiens, UniProt Q02763)
T7 construct: purchased Eurofins (KinaseProfiler)
How it was run: as §1

Txk(h) = molecular target: T8, Txk(h) (Homo sapiens, UniProt P42681)
T8 construct: purchased Eurofins (KinaseProfiler)
How it was run: as §1

PKCι(h) = molecular target: T9, PKCι(h) (Homo sapiens, UniProt P41743)
T9 construct: purchased Eurofins (KinaseProfiler)
How it was run: as §1

PTK5(h) = molecular target: T10, PTK5(h) (Homo sapiens, UniProt P42685)
T10 construct: purchased Eurofins (KinaseProfiler)
How it was run: as §1

IRAK1(h) = molecular target: T11, IRAK1(h) (Homo sapiens, UniProt P51617)
T11 construct: purchased Eurofins (KinaseProfiler)
How it was run: as §1

Haspin(h) = molecular target: T12, Haspin(h) (Homo sapiens, UniProt Q8TF76)
T12 construct: purchased Eurofins (KinaseProfiler)
How it was run: as §1

CaMKIIα(h) = molecular target: T13, CaMKIIα(h) (Homo sapiens, UniProt Q9UQM7)
T13 construct: purchased Eurofins (KinaseProfiler)
How it was run: as §1

WNK4(h) = molecular target: T14, WNK4(h) (Homo sapiens, UniProt Q96J92)
T14 construct: purchased Eurofins (KinaseProfiler)
How it was run: as §1

EGFR(T790M)(h) = molecular target: T15, EGFR(T790M)(h) (Homo sapiens, UniProt P00533, T790M)
T15 construct: purchased Eurofins (KinaseProfiler)
How it was run: as §1

LRRK2(h) = molecular target: T16, LRRK2(h) (Homo sapiens, UniProt Q5S007)
T16 construct: purchased Eurofins (KinaseProfiler)
How it was run: as §1

DNA-PK(h) = molecular target: T17, DNA-PK(h) (Homo sapiens, UniProt P78527)
T17 construct: purchased Eurofins (KinaseProfiler)
How it was run: as §1

PI3 Kinase (p120g)(h) = molecular target: T18, PI3 Kinase (p120g)(h) (Homo sapiens, UniProt P48736)
T18 construct: purchased Eurofins (KinaseProfiler)
How it was run: as §1

SIK2(h) = molecular target: T19, SIK2(h) (Homo sapiens, UniProt Q9H0K1)
T19 construct: purchased Eurofins (KinaseProfiler)
How it was run: as §1

[1] = molecular target: PI3 Kinase (p110a(E542K)/p85a)(h) (Homo sapiens, UniProt P42336, E542K)
How it was run: as §1

Plk4(h) = molecular target: T20, Plk4(h) (Homo sapiens, UniProt O00444)
T20 construct: purchased Eurofins (KinaseProfiler)
How it was run: as §1

ALK4(h) = molecular target: T21, ALK4(h) (Homo sapiens, UniProt P36896)
T21 construct: purchased Eurofins (KinaseProfiler)
How it was run: as §1

PDHK2(h) = molecular target: T22, PDHK2(h) (Homo sapiens, UniProt Q15119)
T22 construct: purchased Eurofins (KinaseProfiler)
How it was run: as §1

BrSK2(h) = molecular target: T23, BrSK2(h) (Homo sapiens, UniProt Q8IWQ3)
T23 construct: purchased Eurofins (KinaseProfiler)
How it was run: as §1

HPK1(h) = molecular target: T24, HPK1(h) (Homo sapiens, UniProt Q92918)
T24 construct: purchased Eurofins (KinaseProfiler)
How it was run: as §1

EGFR(L858R)(h) = molecular target: T25, EGFR(L858R)(h) (Homo sapiens, UniProt P00533, L858R)
T25 construct: purchased Eurofins (KinaseProfiler)
How it was run: as §1

NEK4(h) = molecular target: T26, NEK4(h) (Homo sapiens, UniProt P51957)
T26 construct: purchased Eurofins (KinaseProfiler)
How it was run: as §1

Fms(h) = molecular target: T27, Fms(h) (Homo sapiens, UniProt P07333)
T27 construct: purchased Eurofins (KinaseProfiler)
How it was run: as §1

Abl(T315I)(h) = molecular target: T28, Abl(T315I)(h) (Homo sapiens, UniProt P00519, T315I)
T28 construct: purchased Eurofins (KinaseProfiler)
How it was run: as §1

CaMKIIβ(h) = molecular target: T29, CaMKIIβ(h) (Homo sapiens, UniProt Q13554)
T29 construct: purchased Eurofins (KinaseProfiler)
How it was run: as §1

NLK(h) = molecular target: T30, NLK(h) (Homo sapiens, UniProt Q9UBE8)
T30 construct: purchased Eurofins (KinaseProfiler)
How it was run: as §1

MAPK1(h) = molecular target: T31, MAPK1(h) (Homo sapiens, UniProt P27361)
T31 construct: purchased Eurofins (KinaseProfiler)
How it was run: as §1

PKG1β(h) = molecular target: T32, PKG1β(h) (Homo sapiens, UniProt Q13976)
T32 construct: purchased Eurofins (KinaseProfiler)
How it was run: as §1

MST2(h) = molecular target: T33, MST2(h) (Homo sapiens, UniProt Q13188)
T33 construct: purchased Eurofins (KinaseProfiler)
How it was run: as §1

WNK3(h) = molecular target: T34, WNK3(h) (Homo sapiens, UniProt Q9BYP7)
T34 construct: purchased Eurofins (KinaseProfiler)
How it was run: as §1

[2] = molecular target: PI3 Kinase (p110b/p85b)(m) (Mus musculus, UniProt Q8BTI9)
How it was run: as §1

PKBα(h) = molecular target: T35, PKBα(h) (Homo sapiens, UniProt P31749)
T35 construct: purchased Eurofins (KinaseProfiler)
How it was run: as §1

Lck(h) activated = molecular target: T36, Lck(h) activated (Homo sapiens, UniProt P06239)
T36 construct: purchased Eurofins (KinaseProfiler)
How it was run: as §1

T12 sequence (Q8TF76 whole entry): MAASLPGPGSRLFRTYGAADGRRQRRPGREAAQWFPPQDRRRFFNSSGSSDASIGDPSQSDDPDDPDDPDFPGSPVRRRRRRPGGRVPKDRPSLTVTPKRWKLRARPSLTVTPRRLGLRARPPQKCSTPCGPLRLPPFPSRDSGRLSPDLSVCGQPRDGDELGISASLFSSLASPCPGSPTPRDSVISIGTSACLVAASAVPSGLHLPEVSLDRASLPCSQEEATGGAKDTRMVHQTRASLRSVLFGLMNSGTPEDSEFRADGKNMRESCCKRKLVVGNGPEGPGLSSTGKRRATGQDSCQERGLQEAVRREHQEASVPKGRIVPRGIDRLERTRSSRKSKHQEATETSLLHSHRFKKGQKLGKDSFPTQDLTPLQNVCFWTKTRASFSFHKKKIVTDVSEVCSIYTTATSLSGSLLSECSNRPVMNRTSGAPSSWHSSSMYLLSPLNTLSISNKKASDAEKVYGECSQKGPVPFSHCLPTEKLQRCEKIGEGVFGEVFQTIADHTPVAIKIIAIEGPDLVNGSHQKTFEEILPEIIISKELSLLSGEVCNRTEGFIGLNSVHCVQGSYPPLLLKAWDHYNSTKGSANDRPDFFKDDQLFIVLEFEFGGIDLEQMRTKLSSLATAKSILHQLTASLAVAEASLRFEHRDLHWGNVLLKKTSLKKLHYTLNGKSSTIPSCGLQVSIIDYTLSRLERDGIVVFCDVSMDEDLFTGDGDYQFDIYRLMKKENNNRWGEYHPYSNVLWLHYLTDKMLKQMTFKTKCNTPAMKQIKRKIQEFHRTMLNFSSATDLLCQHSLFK
T20 sequence (O00444 whole entry): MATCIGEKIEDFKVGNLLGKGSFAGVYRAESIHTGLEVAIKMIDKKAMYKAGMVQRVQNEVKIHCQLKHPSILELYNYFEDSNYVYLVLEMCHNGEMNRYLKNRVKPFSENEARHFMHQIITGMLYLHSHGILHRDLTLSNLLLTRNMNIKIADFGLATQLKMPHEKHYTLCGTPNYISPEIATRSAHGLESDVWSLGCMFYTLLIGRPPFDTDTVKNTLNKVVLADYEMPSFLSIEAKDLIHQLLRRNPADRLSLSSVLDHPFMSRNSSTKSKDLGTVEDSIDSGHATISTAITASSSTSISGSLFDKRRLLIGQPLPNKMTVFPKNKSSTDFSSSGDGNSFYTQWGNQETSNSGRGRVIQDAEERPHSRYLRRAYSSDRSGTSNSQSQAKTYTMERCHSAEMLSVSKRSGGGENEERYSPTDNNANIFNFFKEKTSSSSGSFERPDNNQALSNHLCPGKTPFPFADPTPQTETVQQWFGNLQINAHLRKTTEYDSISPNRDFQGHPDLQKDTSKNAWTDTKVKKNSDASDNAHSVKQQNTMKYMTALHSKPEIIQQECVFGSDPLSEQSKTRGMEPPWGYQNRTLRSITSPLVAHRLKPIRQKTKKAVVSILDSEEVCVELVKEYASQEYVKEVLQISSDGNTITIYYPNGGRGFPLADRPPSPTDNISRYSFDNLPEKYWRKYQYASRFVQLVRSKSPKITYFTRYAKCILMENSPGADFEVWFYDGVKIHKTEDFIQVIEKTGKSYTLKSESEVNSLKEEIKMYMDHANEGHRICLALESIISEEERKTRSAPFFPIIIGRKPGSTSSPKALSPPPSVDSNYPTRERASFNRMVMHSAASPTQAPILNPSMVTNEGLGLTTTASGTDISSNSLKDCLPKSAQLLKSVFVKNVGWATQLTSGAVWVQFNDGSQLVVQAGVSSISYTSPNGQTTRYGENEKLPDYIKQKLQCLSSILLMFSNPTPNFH
T11 sequence (P51617 whole entry): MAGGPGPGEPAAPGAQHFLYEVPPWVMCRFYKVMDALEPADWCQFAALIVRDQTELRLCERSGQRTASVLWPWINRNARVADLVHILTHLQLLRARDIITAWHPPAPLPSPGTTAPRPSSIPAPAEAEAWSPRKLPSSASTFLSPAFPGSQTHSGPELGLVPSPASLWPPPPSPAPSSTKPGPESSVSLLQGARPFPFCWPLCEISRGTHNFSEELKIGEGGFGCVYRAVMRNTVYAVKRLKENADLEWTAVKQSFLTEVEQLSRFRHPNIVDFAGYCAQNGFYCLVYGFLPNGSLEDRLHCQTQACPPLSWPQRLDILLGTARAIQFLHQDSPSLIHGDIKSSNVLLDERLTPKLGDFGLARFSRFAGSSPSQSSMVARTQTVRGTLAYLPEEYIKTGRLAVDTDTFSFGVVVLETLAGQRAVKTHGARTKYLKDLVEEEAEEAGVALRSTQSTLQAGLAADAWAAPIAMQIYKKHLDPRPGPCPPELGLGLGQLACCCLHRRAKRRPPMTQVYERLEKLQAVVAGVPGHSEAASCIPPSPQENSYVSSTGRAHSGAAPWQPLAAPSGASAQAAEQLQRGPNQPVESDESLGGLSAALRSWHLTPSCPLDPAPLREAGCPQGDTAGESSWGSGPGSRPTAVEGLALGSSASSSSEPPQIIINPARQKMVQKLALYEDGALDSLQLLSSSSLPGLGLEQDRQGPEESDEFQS
T7 sequence (Q02763 23-1124): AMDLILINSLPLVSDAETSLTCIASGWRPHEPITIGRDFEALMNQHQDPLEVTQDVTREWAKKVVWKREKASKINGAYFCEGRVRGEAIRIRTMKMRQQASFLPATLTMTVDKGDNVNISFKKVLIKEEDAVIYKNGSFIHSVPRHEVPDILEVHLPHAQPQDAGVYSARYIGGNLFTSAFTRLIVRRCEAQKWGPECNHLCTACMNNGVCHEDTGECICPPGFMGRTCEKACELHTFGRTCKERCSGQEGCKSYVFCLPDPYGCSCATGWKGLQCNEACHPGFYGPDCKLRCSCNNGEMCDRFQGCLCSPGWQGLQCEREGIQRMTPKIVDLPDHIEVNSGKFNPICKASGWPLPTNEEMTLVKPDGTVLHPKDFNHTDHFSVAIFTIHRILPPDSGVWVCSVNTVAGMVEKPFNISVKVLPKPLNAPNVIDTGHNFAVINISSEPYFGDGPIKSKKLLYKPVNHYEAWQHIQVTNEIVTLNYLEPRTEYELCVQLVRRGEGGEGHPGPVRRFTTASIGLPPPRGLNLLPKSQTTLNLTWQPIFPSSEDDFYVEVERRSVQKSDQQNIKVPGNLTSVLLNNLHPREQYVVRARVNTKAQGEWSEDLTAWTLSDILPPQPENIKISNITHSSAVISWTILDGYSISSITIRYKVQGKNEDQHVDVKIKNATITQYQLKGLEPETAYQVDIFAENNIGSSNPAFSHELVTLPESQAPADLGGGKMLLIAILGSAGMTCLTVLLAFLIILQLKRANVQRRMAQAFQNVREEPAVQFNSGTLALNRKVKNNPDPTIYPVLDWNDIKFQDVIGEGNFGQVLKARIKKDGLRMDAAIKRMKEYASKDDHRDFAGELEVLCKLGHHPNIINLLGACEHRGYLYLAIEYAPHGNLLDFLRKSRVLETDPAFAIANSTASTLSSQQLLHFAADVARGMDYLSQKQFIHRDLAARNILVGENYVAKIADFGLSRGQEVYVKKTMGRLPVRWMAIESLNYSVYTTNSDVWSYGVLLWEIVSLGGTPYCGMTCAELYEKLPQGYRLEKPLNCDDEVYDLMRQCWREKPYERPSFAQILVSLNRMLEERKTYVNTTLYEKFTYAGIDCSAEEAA
T15 sequence (P00533 25-1210 T790M): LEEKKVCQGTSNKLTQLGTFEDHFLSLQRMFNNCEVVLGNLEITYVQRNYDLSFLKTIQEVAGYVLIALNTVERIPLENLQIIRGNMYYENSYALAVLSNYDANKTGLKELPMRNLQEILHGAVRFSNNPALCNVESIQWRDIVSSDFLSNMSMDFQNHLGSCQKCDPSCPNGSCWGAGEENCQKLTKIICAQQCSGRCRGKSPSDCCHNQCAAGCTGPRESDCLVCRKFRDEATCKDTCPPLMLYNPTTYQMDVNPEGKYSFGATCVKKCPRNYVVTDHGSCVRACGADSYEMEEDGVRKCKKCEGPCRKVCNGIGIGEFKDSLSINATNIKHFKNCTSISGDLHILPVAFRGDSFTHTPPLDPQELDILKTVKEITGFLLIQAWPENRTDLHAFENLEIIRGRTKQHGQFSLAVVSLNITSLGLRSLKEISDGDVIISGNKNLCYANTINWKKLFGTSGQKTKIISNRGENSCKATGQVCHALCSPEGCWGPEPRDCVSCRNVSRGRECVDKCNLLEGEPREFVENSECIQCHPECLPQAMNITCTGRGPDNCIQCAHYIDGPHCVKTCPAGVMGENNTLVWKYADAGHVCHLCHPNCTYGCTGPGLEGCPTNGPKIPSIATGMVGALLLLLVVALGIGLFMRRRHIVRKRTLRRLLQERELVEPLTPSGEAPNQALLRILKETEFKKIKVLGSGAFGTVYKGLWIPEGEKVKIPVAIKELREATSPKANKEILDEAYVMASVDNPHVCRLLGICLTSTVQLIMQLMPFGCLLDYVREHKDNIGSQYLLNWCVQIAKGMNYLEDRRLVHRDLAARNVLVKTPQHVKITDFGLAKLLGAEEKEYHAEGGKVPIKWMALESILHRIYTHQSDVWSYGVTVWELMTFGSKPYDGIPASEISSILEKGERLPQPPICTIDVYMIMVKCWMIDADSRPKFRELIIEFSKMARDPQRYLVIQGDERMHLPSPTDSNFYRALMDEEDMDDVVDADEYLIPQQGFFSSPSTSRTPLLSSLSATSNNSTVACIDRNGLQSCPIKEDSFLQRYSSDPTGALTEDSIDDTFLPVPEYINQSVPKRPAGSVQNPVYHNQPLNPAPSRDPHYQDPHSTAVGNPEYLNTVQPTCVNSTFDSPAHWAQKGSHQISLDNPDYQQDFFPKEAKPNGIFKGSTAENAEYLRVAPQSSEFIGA

## Cc1cc(/C=C/C#N)cc(C)c1Nc1ccnc(Nc2ccc(C#N)cc2)n1 [rilpivirine, (E)-4-((4-((4-(2-cyanoethenyl)-2,6-dimethylphenyl)amino)pyrimidin-2-yl)amino)benzonitrile]
EGFR(h)
  remaining activity at 1 µM: 111%
Met(D1246H)(h)
  remaining activity at 1 µM: 95%
Plk1(h)
  remaining activity at 1 µM: 107%
c-RAF(h)
  remaining activity at 1 µM: 91%
TAF1L(h)
  remaining activity at 1 µM: 55%
DAPK2(h)
  remaining activity at 1 µM: 80%
Tie2 (h)
  remaining activity at 1 µM: 93%
Txk(h)
  remaining activity at 1 µM: 79%
PKCι(h)
  remaining activity at 1 µM: 99%
PTK5(h)
  remaining activity at 1 µM: 32%
IRAK1(h)
  remaining activity at 1 µM: 84%
Haspin(h)
  remaining activity at 1 µM: 61%
CaMKIIα(h)
  remaining activity at 1 µM: 61%
WNK4(h)
  remaining activity at 1 µM: 113%
EGFR(T790M)(h)
  remaining activity at 1 µM: 79%
LRRK2(h)
  remaining activity at 1 µM: 93%
DNA-PK(h)
  remaining activity at 1 µM: 95%
PI3 Kinase (p120g)(h)
  remaining activity at 1 µM: 87%
SIK2(h)
  remaining activity at 1 µM: 57%
[1]
  remaining activity at 1 µM: 97%
Plk4(h)
  remaining activity at 1 µM: 85%
ALK4(h)
  remaining activity at 1 µM: 79%
PDHK2(h)
  remaining activity at 1 µM: 90%
BrSK2(h)
  remaining activity at 1 µM: 80%
HPK1(h)
  remaining activity at 1 µM: 62%
EGFR(L858R)(h)
  remaining activity at 1 µM: 90%
NEK4(h)
  remaining activity at 1 µM: 97%
Fms(h)
  remaining activity at 1 µM: 91%
Abl(T315I)(h)
  remaining activity at 1 µM: 93%
CaMKIIβ(h)
  remaining activity at 1 µM: 69%
NLK(h)
  remaining activity at 1 µM: 64%
MAPK1(h)
  remaining activity at 1 µM: 90%
PKG1β(h)
  remaining activity at 1 µM: 79%
MST2(h)
  remaining activity at 1 µM: 80%
WNK3(h)
  remaining activity at 1 µM: 83%
[2]
  remaining activity at 1 µM: 97%
PKBα(h)
  remaining activity at 1 µM: 80%
Lck(h) activated
  remaining activity at 1 µM: 54%
